Measured values: ChEMBL document CHEMBL1201861, “Genomics of Drug Sensitity in Cancer screening data, Wellcome Trust Sanger Institute”

Tests used:
Test in all cases: cells
Type in all cases: functional, cell-based
Conditions in all cases: Homo sapiens
A 172 = tested on: A 172;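 further: growth inhibition of A172 cells, measured with a cell viability readout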
Description: SANGER: Inhibition of human A172 cell growth in a cell viability assay.

PFSK-1 = tested on: PFSK-1;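 further: cell viability assay measuring how strongly compounds suppress growth of human PFSK-1 cells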
Description: SANGER: Inhibition of human PFSK-1 cell growth in a cell viability assay.

HuP-T3 = tested on: HuP-T3;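 further: HuP-T3 cell growth inhibition, read out with a cell viability assay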
Description: SANGER: Inhibition of human HuP-T3 cell growth in a cell viability assay.

CAL-85-1 = tested on: CAL-85-1;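 further: growth inhibition of human CAL-85-1 cells, read out with a cell viability assay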
Description: SANGER: Inhibition of human CAL-85-1 cell growth in a cell viability assay.

DOK = tested on: DOK;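 further: cell viability assay read-out, values reflect inhibition of cell growth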
Description: SANGER: Inhibition of human DOK cell growth in a cell viability assay.

HTC-C3 = tested on: HTC-C3;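 further: inhibition of cell growth, read out with a cell viability assay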
Description: SANGER: Inhibition of human HTC-C3 cell growth in a cell viability assay.

HT-1376 = tested on: HT-1376
Description: SANGER: Inhibition of human HT-1376 cell growth in a cell viability assay.

SK-N-AS = tested on: SK-N-AS;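 further: growth inhibition of human SK-N-AS cells, measured with a cell viability assay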
Description: SANGER: Inhibition of human SK-N-AS cell growth in a cell viability assay.

C3A = tested on: C3A;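 further: growth inhibition of C3A human cells, quantified with a cell viability readout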
Description: SANGER: Inhibition of human C3A cell growth in a cell viability assay.

NCI-H2087 = tested on: NCI-H2087;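 further: growth inhibition determined with a cell viability readout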
Description: SANGER: Inhibition of human NCI-H2087 cell growth in a cell viability assay.

Hs-578T = tested on: Hs-578T
Description: SANGER: Inhibition of human Hs-578-T cell growth in a cell viability assay.

CAL-33 = tested on: CAL-33;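 further: growth inhibition of CAL-33 cells, read out with a cell viability assay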
Description: SANGER: Inhibition of human CAL-33 cell growth in a cell viability assay.

AGS = tested on: AGS;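 further: growth inhibition of AGS cells, determined with a cell viability assay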
Description: SANGER: Inhibition of human AGS cell growth in a cell viability assay.

NB7 = tested on: NB7;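 further: growth inhibition of NB7 cells, read out with a cell viability assay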
Description: SANGER: Inhibition of human NB7 cell growth in a cell viability assay.

BALL-1 = tested on: BALL-1;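 further: growth inhibition of BALL-1 cells, read out with a cell viability assay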
Description: SANGER: Inhibition of human BALL-1 cell growth in a cell viability assay.

D-423MG = tested on: D-423MG
Description: SANGER: Inhibition of human D-423MG cell growth in a cell viability assay.

HT55 = tested on: HT55;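 further: cell viability readout measuring growth inhibition of human HT55 cells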
Description: SANGER: Inhibition of human HT55 cell growth in a cell viability assay.

CAKI-1 = tested on: CAKI-1;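 further: growth inhibition of CAKI-1 cells, measured by a cell viability assay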
Description: SANGER: Inhibition of human CAKI-1 cell growth in a cell viability assay.

LB996-RCC = tested on: LB996-RCC
Description: SANGER: Inhibition of human LB996-RCC cell growth in a cell viability assay.

HuO9 = tested on: HuO9;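 further: growth inhibition of HuO9 cells, read out with a cell viability assay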
Description: SANGER: Inhibition of human HuO9 cell growth in a cell viability assay.

NY = tested on: NY
Description: SANGER: Inhibition of human NY cell growth in a cell viability assay.

GAMG = tested on: GAMG;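 further: cell growth inhibition measured by a viability assay in the GAMG human cell line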
Description: SANGER: Inhibition of human GAMG cell growth in a cell viability assay.

KYSE-450 = tested on: KYSE-450;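 further: cell growth inhibition measured by a viability assay in human KYSE-450 cells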
Description: SANGER: Inhibition of human KYSE-450 cell growth in a cell viability assay.

KP-4 = tested on: KP-4;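 further: human KP-4 cells, with growth inhibition read out through a cell viability assay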
Description: SANGER: Inhibition of human KP-4 cell growth in a cell viability assay.

HCC1569 = tested on: HCC1569;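 further: growth inhibition of human HCC1569 cells, read out with a cell viability assay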
Description: SANGER: Inhibition of human HCC1569 cell growth in a cell viability assay.

AN3-CA = tested on: AN3-CA;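 further: growth inhibition of human AN3-CA cells measured by a cell viability assay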
Description: SANGER: Inhibition of human AN3-CA cell growth in a cell viability assay.

CaR-1 = tested on: CaR-1;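 further: growth inhibition of human CaR-1 cancer cells, read out with a cell viability assay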
Description: SANGER: Inhibition of human CaR-1 cell growth in a cell viability assay.

SNU-449 = tested on: SNU-449
Description: SANGER: Inhibition of human SNU-449 cell growth in a cell viability assay.

SK-MEL-30 = tested on: SK-MEL-30;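 further: growth inhibition of SK-MEL-30 cells, determined with a cell viability assay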
Description: SANGER: Inhibition of human SK-MEL-30 cell growth in a cell viability assay.

NCI-H2347 = tested on: NCI-H2347;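 further: growth inhibition of the cell line, read out with a cell viability assay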
Description: SANGER: Inhibition of human NCI-H2347 cell growth in a cell viability assay.

SW1417 = tested on: SW1417;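 further: growth inhibition of human SW1417 cells, read out with a cell viability assay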
Description: SANGER: Inhibition of human SW1417 cell growth in a cell viability assay.

PC-3 = tested on: PC-3;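 further: cell viability assay measuring growth inhibition of PC-3 cells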
Description: SANGER: Inhibition of human PC-3 cell growth in a cell viability assay.

SKG-IIIa = tested on: SKG-IIIa;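 further: cell growth inhibition, read out with a cell viability assay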
Description: SANGER: Inhibition of human SKG-IIIa cell growth in a cell viability assay.

D-566MG = tested on: D-566MG
M059J = tested on: M059J;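 further: growth inhibition of M059J cells, read out with a cell viability assay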
Description: SANGER: Inhibition of human M059J cell growth in a cell viability assay.

OE19 = tested on: OE19;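 further: growth inhibition of OE19 cells, measured through a cell viability read-out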
Description: SANGER: Inhibition of human OE19 cell growth in a cell viability assay.

NCI-H2291 = tested on: NCI-H2291
Description: SANGER: Inhibition of human NCI-H2291 cell growth in a cell viability assay.

SK-OV-3 = tested on: SK-OV-3;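 further: growth inhibition of SK-OV-3 human cells, read out with a cell viability assay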
Description: SANGER: Inhibition of human SK-OV-3 cell growth in a cell viability assay.

MG-63 = tested on: MG-63;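 further: growth inhibition of human MG-63 cells, read out with a cell viability assay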
Description: SANGER: Inhibition of human MG-63 cell growth in a cell viability assay.

MDA-MB-175-VII = tested on: MDA-MB-175-VII
769-P = tested on: 769-P
Description: SANGER: Inhibition of human 769-P cell growth in a cell viability assay.

Panc1005 = tested on: Panc1005;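 further: growth inhibition of human PANC-10-05 cells, measured by a cell viability assay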
Description: SANGER: Inhibition of human PANC-10-05 cell growth in a cell viability assay.

RERF-LC-MS = tested on: RERF-LC-MS;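 further: growth inhibition of human RERF-LC-MS cells, read out by a cell viability assay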
Description: SANGER: Inhibition of human RERF-LC-MS cell growth in a cell viability assay.

NCI-H2452 = tested on: NCI-H2452;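 further: growth inhibition of NCI-H2452 cells, read out with a cell viability assay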
Description: SANGER: Inhibition of human NCI-H2452 cell growth in a cell viability assay.

NCI-H460 = tested on: NCI-H460;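 further: cell viability assay scoring growth inhibition of human NCI-H460 cells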
Description: SANGER: Inhibition of human NCI-H460 cell growth in a cell viability assay.

WM-115 = tested on: WM-115
Description: SANGER: Inhibition of human WM-115 cell growth in a cell viability assay.

HN = tested on: HN
Description: SANGER: Inhibition of human HN cell growth in a cell viability assay.

NCI-H1703 = tested on: NCI-H1703;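 further: growth inhibition of NCI-H1703 cells, read out via a cell viability assay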
Description: SANGER: Inhibition of human NCI-H1703 cell growth in a cell viability assay.

CAL-62 = tested on: CAL-62;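 further: growth inhibition of CAL-62 cells, read out with a cell viability assay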
Description: SANGER: Inhibition of human CAL-62 cell growth in a cell viability assay.

LB647-SCLC = tested on: LB647-SCLC;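 further: cell growth inhibition, read out by a viability assay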
Description: SANGER: Inhibition of human LB647-SCLC cell growth in a cell viability assay.

NCI-H64 = tested on: NCI-H64;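 further: growth inhibition of NCI-H64 cells, read out with a cell viability assay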
Description: SANGER: Inhibition of human NCI-H64 cell growth in a cell viability assay.

NCI-H1417 = tested on: NCI-H1417;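 further: human NCI-H1417 cells, growth inhibition determined with a cell viability readout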
Description: SANGER: Inhibition of human NCI-H1417 cell growth in a cell viability assay.

GDM-1 = tested on: GDM-1;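 further: cell viability readout used to measure growth inhibition of human GDM-1 cells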
Description: SANGER: Inhibition of human GDM-1 cell growth in a cell viability assay.

SCC-3 = tested on: SCC-3;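 further: cell viability assay measuring inhibition of SCC-3 cell growth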
Description: SANGER: Inhibition of human SCC-3 cell growth in a cell viability assay.

BL-41 = tested on: BL-41;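 further: growth inhibition of human BL-41 cells, read out with a cell viability assay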
Description: SANGER: Inhibition of human BL-41 cell growth in a cell viability assay.

NCI-H322M = tested on: NCI-H322M;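 further: cell viability assay measuring inhibition of growth of human NCI-H322M cells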
Description: SANGER: Inhibition of human NCI-H322M cell growth in a cell viability assay.

LC-1F = tested on: LC-1F;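 further: growth inhibition of human LC-1F cells, read out with a cell viability assay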
Description: SANGER: Inhibition of human LC-1F cell growth in a cell viability assay.

THP-1 = tested on: THP-1;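 further: growth inhibition of THP-1 cells, read out via a cell viability assay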
Description: SANGER: Inhibition of human THP-1 cell growth in a cell viability assay.

NCI-H1882 = tested on: NCI-H1882;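 further: growth inhibition of the cell line, determined with a viability assay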
Description: SANGER: Inhibition of human NCI-H1882 cell growth in a cell viability assay.

DV-90 = tested on: DV-90;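 further: Read-out is a viability assay, with IC50 reflecting the drop in DV-90 cell growth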
Description: SANGER: Inhibition of human DV-90 cell growth in a cell viability assay.

NALM-6 = tested on: NALM-6
Description: SANGER: Inhibition of human NALM-6 cell growth in a cell viability assay.

TALL-1 = tested on: TALL-1
Description: SANGER: Inhibition of human TALL-1 cell growth in a cell viability assay.

NCI-H1618 = tested on: NCI-H1618
Description: SANGER: Inhibition of human NCI-H1618 cell growth in a cell viability assay.

ECC4 = tested on: ECC4
Description: SANGER: Inhibition of human ECC4 cell growth in a cell viability assay.

SIG-M5 = tested on: SIG-M5
Description: SANGER: Inhibition of human SIG-M5 cell growth in a cell viability assay.

BC-3 = tested on: BC-3
Description: SANGER: Inhibition of human BC-3 cell growth in a cell viability assay.

O=c1cc(N2CCOCC2)oc2c(-c3cccc4c3sc3ccccc34)cccc12
IC50 (A 172): 153 nM | IC50 (PFSK-1): > 2 µM | IC50 (HuP-T3): > 2000 nM | IC50 (CAL-85-1): > 2000 nM | IC50 (DOK): > 2 µM | IC50 (HTC-C3): > 2000 nM | IC50 (HT-1376): > 2000 nM | IC50 (SK-N-AS): 622 nM | IC50 (C3A): > 2000 nM | IC50 (NCI-H2087): > 2000 nM | IC50 (Hs-578T): > 2 µM | IC50 (CAL-33): > 2000 nM | IC50 (AGS): > 2000 nM | IC50 (NB7): 1250 nM | IC50 (BALL-1): > 2000 nM | IC50 (D-423MG): 1690 nM | IC50 (HT55): > 2000 nM | IC50 (CAKI-1): > 2000 nM | IC50 (LB996-RCC): > 2000 nM | IC50 (HuO9): > 2000 nM | IC50 (NY): > 2000 nM | IC50 (GAMG): > 2000 nM | IC50 (KYSE-450): > 2000 nM | IC50 (KP-4): > 2000 nM | IC50 (HCC1569): > 2000 nM | IC50 (AN3-CA): > 2000 nM | IC50 (CaR-1): > 2000 nM | IC50 (SNU-449): > 2 µM | IC50 (SK-MEL-30): > 2000 nM | IC50 (NCI-H2347): > 2000 nM | IC50 (SW1417): > 2000 nM | IC50 (PC-3): > 2 µM | IC50 (SKG-IIIa): > 2000 nM | IC50 (D-566MG): > 2000 nM | IC50 (M059J): > 2000 nM | IC50 (OE19): > 2000 nM | IC50 (NCI-H2291): > 2000 nM | IC50 (SK-OV-3): > 2000 nM | IC50 (MG-63): > 2000 nM | IC50 (MDA-MB-175-VII): > 2 µM | IC50 (769-P): > 2000 nM | IC50 (Panc1005): > 2000 nM | IC50 (RERF-LC-MS): > 2000 nM | IC50 (NCI-H2452): > 2 µM | IC50 (NCI-H460): > 2000 nM | IC50 (WM-115): > 2000 nM | IC50 (HN): > 2000 nM | IC50 (NCI-H1703): > 2000 nM | IC50 (CAL-62): > 2000 nM

CO[C@@]12[C@H](COC(N)=O)C3=C(C(=O)C(C)=C(N)C3=O)N1C[C@@H]1N[C@@H]12 [MITOMYCIN]
IC50 (A 172): 538 nM | IC50 (PFSK-1): 5.88 µM | IC50 (LB647-SCLC): 336 nM | IC50 (HuP-T3): 711 nM | IC50 (CAL-85-1): 65.9 nM | IC50 (DOK): 5.16 µM | IC50 (NCI-H64): 1530 nM | IC50 (HTC-C3): 5790 nM | IC50 (HT-1376): 967 nM | IC50 (SK-N-AS): 1790 nM | IC50 (C3A): 194 nM | IC50 (NCI-H1417): 237 nM | IC50 (GDM-1): 377 nM | IC50 (NCI-H2087): 85.7 nM | IC50 (SCC-3): < 62.5 nM | IC50 (Hs-578T): 6.2 µM | IC50 (CAL-33): 537 nM | IC50 (AGS): 106 nM | IC50 (HT55): 1950 nM | IC50 (CAKI-1): 23.3 nM | IC50 (LB996-RCC): 17.7 nM | IC50 (NY): 657 nM | IC50 (GAMG): 428 nM | IC50 (KYSE-450): 563 nM | IC50 (HCC1569): 645 nM | IC50 (BL-41): 295 nM | IC50 (AN3-CA): 523 nM | IC50 (CaR-1): 469 nM | IC50 (NCI-H322M): 1800 nM | IC50 (SNU-449): 3.36 µM | IC50 (LC-1F): 862 nM | IC50 (SK-MEL-30): 474 nM | IC50 (THP-1): 596 nM | IC50 (NCI-H2347): 850 nM | IC50 (SW1417): 1010 nM | IC50 (PC-3): 4.07 µM | IC50 (SKG-IIIa): 377 nM | IC50 (NCI-H1882): 257 nM | IC50 (M059J): 101 nM | IC50 (OE19): 365 nM | IC50 (DV-90): 2920 nM | IC50 (SK-OV-3): 143 nM | IC50 (MG-63): 226 nM | IC50 (NALM-6): < 62.5 nM | IC50 (TALL-1): 2400 nM | IC50 (NCI-H1618): 118 nM | IC50 (MDA-MB-175-VII): 3.16 µM | IC50 (769-P): < 62.5 nM | IC50 (Panc1005): 73.7 nM | IC50 (ECC4): 5.07 µM | IC50 (RERF-LC-MS): 1030 nM | IC50 (NCI-H2452): 8.94 µM | IC50 (NCI-H460): < 62.5 nM | IC50 (SIG-M5): < 62.5 nM | IC50 (WM-115): > 16000 nM | IC50 (HN): 783 nM | IC50 (NCI-H1703): 277 nM | IC50 (BC-3): 212 nM | IC50 (CAL-62): 242 nM

CCCS(=O)(=O)Nc1ccc(F)c(C(=O)c2c[nH]c3ncc(Cl)cc23)c1F [PLX-4720]
IC50 (A 172): > 10000 nM | IC50 (PFSK-1): > 10 µM | IC50 (HuP-T3): > 10000 nM | IC50 (CAL-85-1): > 10000 nM | IC50 (DOK): > 10 µM | IC50 (HTC-C3): 1660 nM | IC50 (HT-1376): > 10000 nM | IC50 (SK-N-AS): > 10000 nM | IC50 (C3A): > 10000 nM | IC50 (NCI-H2087): > 10000 nM | IC50 (Hs-578T): > 10 µM | IC50 (CAL-33): > 10000 nM | IC50 (AGS): > 10000 nM | IC50 (NB7): 6210 nM | IC50 (BALL-1): > 10000 nM | IC50 (D-423MG): > 10000 nM | IC50 (HT55): > 10000 nM | IC50 (CAKI-1): > 10000 nM | IC50 (LB996-RCC): > 10000 nM | IC50 (HuO9): > 10000 nM | IC50 (NY): > 10000 nM | IC50 (GAMG): > 10000 nM | IC50 (KYSE-450): > 10000 nM | IC50 (KP-4): 2310 nM | IC50 (HCC1569): > 10000 nM | IC50 (AN3-CA): > 10000 nM | IC50 (CaR-1): > 10000 nM | IC50 (SNU-449): > 10 µM | IC50 (SK-MEL-30): 1330 nM | IC50 (NCI-H2347): > 10000 nM | IC50 (SW1417): > 10000 nM | IC50 (PC-3): > 10 µM | IC50 (SKG-IIIa): > 10000 nM | IC50 (D-566MG): > 10000 nM | IC50 (M059J): > 10000 nM | IC50 (OE19): > 10000 nM | IC50 (NCI-H2291): > 10000 nM | IC50 (SK-OV-3): > 10000 nM | IC50 (MG-63): > 10000 nM | IC50 (MDA-MB-175-VII): > 10 µM | IC50 (769-P): > 10000 nM | IC50 (Panc1005): > 10000 nM | IC50 (RERF-LC-MS): > 10000 nM | IC50 (NCI-H2452): > 10 µM | IC50 (NCI-H460): > 10000 nM | IC50 (WM-115): 887 nM | IC50 (HN): > 10000 nM | IC50 (NCI-H1703): > 10000 nM | IC50 (CAL-62): > 10000 nM

CC[C@]1(O)C[C@@H]2CN(CCc3c([nH]c4ccccc34)[C@@](C(=O)OC)(c3cc4c(cc3OC)N(C)[C@H]3[C@@](O)(C(=O)OC)[C@H](OC(C)=O)[C@]5(CC)C=CCN6CC[C@]43[C@@H]65)C2)C1 [VINBLASTINE]
IC50 (A 172): 9.62 nM | IC50 (PFSK-1): 0.00497 µM | IC50 (HuP-T3): 18 nM | IC50 (CAL-85-1): > 100 nM | IC50 (DOK): 0.0042 µM | IC50 (HTC-C3): 10.4 nM | IC50 (HT-1376): 60.4 nM | IC50 (SK-N-AS): 8.67 nM | IC50 (C3A): > 100 nM | IC50 (NCI-H2087): 30.5 nM | IC50 (Hs-578T): 0.0173 µM | IC50 (CAL-33): 6.18 nM | IC50 (AGS): 12.3 nM | IC50 (NB7): > 100 nM | IC50 (BALL-1): > 100 nM | IC50 (D-423MG): 8.64 nM | IC50 (HT55): > 100 nM | IC50 (CAKI-1): 24.6 nM | IC50 (HuO9): 12.6 nM | IC50 (NY): > 100 nM | IC50 (GAMG): 19.4 nM | IC50 (KYSE-450): 9.65 nM | IC50 (KP-4): 2.37 nM | IC50 (HCC1569): 92.3 nM | IC50 (AN3-CA): 9.76 nM | IC50 (CaR-1): 45.7 nM | IC50 (SNU-449): > 0.1 µM | IC50 (SK-MEL-30): > 100 nM | IC50 (NCI-H2347): > 100 nM | IC50 (SW1417): > 100 nM | IC50 (PC-3): 0.0334 µM | IC50 (SKG-IIIa): 17.2 nM | IC50 (D-566MG): 2.04 nM | IC50 (M059J): 15.1 nM | IC50 (OE19): > 100 nM | IC50 (NCI-H2291): > 100 nM | IC50 (SK-OV-3): > 100 nM | IC50 (MG-63): 14.2 nM | IC50 (MDA-MB-175-VII): > 0.1 µM | IC50 (769-P): 25.6 nM | IC50 (Panc1005): 42.8 nM | IC50 (RERF-LC-MS): 15.1 nM | IC50 (NCI-H2452): 0.00959 µM | IC50 (NCI-H460): 46.4 nM | IC50 (WM-115): 10.2 nM | IC50 (HN): 4.15 nM | IC50 (NCI-H1703): 1.43 nM | IC50 (CAL-62): 10.1 nM
